Literature values in publication PMC9503778, “Targeted Isolation of Antibiotic Brominated Alkaloids from the Marine Sponge Pseudoceratina durissima Using Virtual Screening and Molecular Networking” (Marine Drugs, 2022).

How the values were obtained:
Design in all cases: method as in PMID 29702602
[1] = test system: fresh water fish (Poecilia reticulata); settings: dosed feeding experiments; cited from earlier work
[2] = test system: reef fish (Acanthus triostegus); settings: dosed feeding experiments; cited from earlier work
fish = settings: 100 µg/mL; cited from earlier work

Question: With CN(C)CCCOc1c(Br)cc(/C=C/C(=O)N(C)CCCOc2c(Br)cc(CCN(C)C)cc2Br)cc1Br [psammaplysene D] as the compound, how does the “feeding behavior of fresh water fish (Poecilia reticulata)” value [1] read?
Answer: Its value is “significant curtailing in feeding behavior”.

Question: And the “feeding behavior of reef fish (Acanthus triostegus)” value [2]?
Answer: Its value is “significant curtailing in feeding behavior”.

Question: And the “fish behavior during acute exposure” value (fish)?
Answer: The value was “the fish became totally confused and experienced uncontrolled mobility”.
